According to patent publication US10857230B2, “Co-therapy comprising a small molecule CSF-1R inhibitor and an agonistic antibody that specifically binds CD40 for the treatment of cancer” (Janssen Biotech, Inc., priority 2017, dated 2020):

System: MC38 murine colon carcinoma cells
Experiment: MC38 Tumor Size Assay (Example 1)
Type: in vivo, C57BL/6 mice
Conditions: for Median TTE: 61-day study
Experimental: The mice were housed on irradiated Enrich-o'Cobs™ bedding in static microisolators on a 12-hour light cycle at 20-22° C. (68-72° F.) and 40-60% humidity.
MC38 murine colon carcinoma cells were grown in Dulbecco's Modified Eagle Medium (DMEM) supplemented with 10% fetal bovine serum and 2 mM glutamine, 100 units/mL penicillin G sodium, 100 μg/mL streptomycin sulfate, and 25 μg/mL gentamicin.
The MC38 colon cells used for implantation were harvested during log phase growth and re-suspended in cold PBS. Mice were anesthetized with isoflurane prior to implantation. Each mouse was injected subcutaneously in the right flank with 1×10^6 tumor cells (0.1 mL cell suspension) and tumors were monitored as their volumes approached the target range of 350 to 500 mm^3. […] Tumors were measured with calipers twice weekly in two dimensions. Tumor size was calculated using the formula:
where w=width and l=length, in mm, of a tumor. Tumor weight was estimated with the assumption that 1 mg is equivalent to 1 mm^3 of tumor volume.
The compound of formula (I) was stored at room temperature and antibody stock solutions were stored at 4° C. upon receipt.
Each week of dosing, the compound of formula (I) was dissolved in 0.5% HPMC to yield a 1.0 mg/mL dosing solution. The dosing solution was stored at 4° C., protected from light. The rat IgG2a isotype and anti-CSF1R dosing solutions were prepared fresh each day by diluting aliquots of the stock solutions with PBS to yield 1.0 mg/mL dosing solutions. The dosing solutions were stored at 4° C., protected from light. The anti-mCD40 dosing solution was prepared fresh each day by diluting an aliquot of the stock solution with PBS to yield a 0.1 mg/mL dosing solution. The dosing solution was stored at 4° C., protected from light.
On Day 1 of the study, fourteen groups of C57BL/6 mice (n=10) began dosing according to the following protocol.
The vehicle (0.5% HPMC) and the compound of formula (I) were administered orally (p.o.). The rat IgG2a isotype control, anti-mCD40, and anti-CSF1R were administered intraperitoneally (i.p.). Rat IgG2a(2A3) was administered at […]. The compound of formula (I) and anti-CSF1R were administered at 10 mg/kg, and anti-mCD40 was administered at 1 mg/kg. The dosing volume for all animals was 10 mL/kg (0.2 mL per 20-g mouse) and was adjusted for body weight.
Tumors were measured using calipers twice per week. […] TGI (tumor growth inhibition) analysis was performed on Day 15. The MTV (n), the median tumor volume for the number of animals, n, on Day 15, was determined for each group. Percent tumor growth inhibition (% TGI) was defined as the difference between the MTV of the designated control group (Group 1) and the MTV of the drug-treated group, expressed as a percentage of the MTV of the control group: […]
The data set for TGI analysis included all animals in a group, except those that died due to treatment-related or non-treatment related causes
Animals were monitored individually for tumor growth until Day 61. The study protocol specified a tumor growth delay assay based on the median time-to-endpoint (TTE) in a treated group versus the control group. Each animal was marked for tumor progression (TP) when its tumor reached the 1500 mm^3 volume endpoint. The TTE for each mouse was calculated with the following equation: […]
where b is the intercept and m is the slope of the line obtained by linear regression of a log-transformed tumor growth data set. The data set comprised the first observation that exceeded the study endpoint volume and the three consecutive observations that immediately preceded the attainment of the endpoint volume. […] In instances in which the log-transformed calculated TTE preceded the day prior to reaching endpoint or exceeded the day of reaching tumor volume endpoint, a linear interpolation was performed to approximate TTE.

[1] = Groups 3-7: all dosing from Day 1 (antibodies i.p. Days 1, 5, 9, formula (I) p.o. bid×14), formula (I) and anti-CSF1R 10 mg/kg, anti-mCD40 1 mg/kg, vs rat IgG2a control Group 1
[2] = Groups 9, 11, 13, 14: formula (I) 10 mg/kg p.o. bid×14 beginning Day 4 or anti-CSF1R 10 mg/kg i.p. Days 4, 8, 12, in combinations anti-mCD40 1 mg/kg i.p. Days 1, 5, 9, vs rat IgG2a control Group 1
[3] = number of animals of n=10, Groups 3-7: all dosing from Day 1 (antibodies i.p. Days 1, 5, 9, formula (I) p.o. bid×14), formula (I) and anti-CSF1R 10 mg/kg, anti-mCD40 1 mg/kg
[4] = number of animals of n=10, Groups 9, 11, 13, 14: formula (I) 10 mg/kg p.o. bid×14 beginning Day 4 or anti-CSF1R 10 mg/kg i.p. Days 4, 8, 12, in combinations anti-mCD40 1 mg/kg i.p. Days 1, 5, 9

CC1(C)CC=C(c2nc(C3CC(C)(C)OC(C)(C)C3)ccc2NC(=O)c2nc(C#N)c[nH]2)CC1 [compound of formula (I), 4-cyano-N-(2-(4,4-dimethylcyclohex-1-en-1-yl)-6-(2,2,6,6-tetramethyltetrahydro-2H-pyran-4-yl)pyridin-3-yl)-1H-imidazole-2-carboxamide]
% TGI (Day 15, vs rat IgG2a control Group 1, Groups 3-7: all dosing from Day 1 (antibodies i.p. Days 1, 5, 9, formula (I) p.o. bid×14), formula (I) and anti-CSF1R 10 mg/kg, anti-mCD40 1 mg/kg): 21%
% TGI (Day 15, vs rat IgG2a control Group 1, Groups 9, 11, 13, 14: formula (I) 10 mg/kg p.o. bid×14 beginning Day 4 or anti-CSF1R 10 mg/kg i.p. Days 4, 8, 12, in combinations anti-mCD40 1 mg/kg i.p. Days 1, 5, 9): −24%
Median TTE (Groups 3-7: all dosing from Day 1 (antibodies i.p. Days 1, 5, 9, formula (I) p.o. bid×14), formula (I) and anti-CSF1R 10 mg/kg, anti-mCD40 1 mg/kg, 1500 mm^3 endpoint): 17.5 days
% TGD [1]: 17%
T − C [1]: 2.5 days
Median TTE (Groups 9, 11, 13, 14: formula (I) 10 mg/kg p.o. bid×14 beginning Day 4 or anti-CSF1R 10 mg/kg i.p. Days 4, 8, 12, in combinations anti-mCD40 1 mg/kg i.p. Days 1, 5, 9, 1500 mm^3 endpoint): 11.4 days
% TGD [2]: −24%
T − C [2]: -3.6 days
Regression CR [3]: 0
Regression PR [3]: 0
Regression CR [4]: 0
Regression PR [4]: 0
Regression TFS (tumor-free survivors Day 61, of n=10, Groups 3-7: all dosing from Day 1 (antibodies i.p. Days 1, 5, 9, formula (I) p.o. bid×14), formula (I) and anti-CSF1R 10 mg/kg, anti-mCD40 1 mg/kg): 0
Regression TFS (tumor-free survivors Day 61, of n=10, Groups 9, 11, 13, 14: formula (I) 10 mg/kg p.o. bid×14 beginning Day 4 or anti-CSF1R 10 mg/kg i.p. Days 4, 8, 12, in combinations anti-mCD40 1 mg/kg i.p. Days 1, 5, 9): 0
